# Source: patent US12202835B2, “Substituted aromatic ring-linked dioxinoquinazolines and dioxinoquinolines as kinase inhibitors” (BEIJING SCITECH-MQ PHARMACEUTICALS LIMITED, priority 2018, dated 2025)
# Legend:
# [1] = test system: Ba/F3 LMNA-NTRK1-G595R cells; assay: Assay for inhibiting the proliferation of Ba/F3 LMNA-NTRK1-G595R cells (CCK-8); assay type: cell-based; details: Mus musculus, BaF3
# Experimental: In particular, the method of the assay of small molecular compounds for inhibiting cell proliferation is as follows: • 1. Cells cultured to a logarithmic growth phase (adherent cells need to be digested with trypsin and neutralized) were taken, pipetted evenly, transferred to a 15 mL centrifuge tube, and centrifuged at 1000 rpm at room temperature for 4 minutes; • 2. The supernatant was discarded; 5 mL of complete medium was added and pipetted evenly; 10 μL of cell suspension was taken out, mixed well with 10 μL of 0.4% trypan blue, and counted under a cell counter; the proportion of living cells was ensured to be above 90%; • 3. 80 μL of cell suspension per well was seeded into a 96-well plate according to the conditions shown in the attached table, and cultured overnight; in the outer 36 wells of the 96-well plate, no cells were added but only sterile water was added; only the inner 60 wells were used for cell assay and control; • 4. 5×compound dilution: the compounds were serially diluted 3-fold to obtain a total of 9 concentrations; 80-fold overall dilution was completed with complete medium, the resulting concentration was 5 times the final drug concentration, and DMSO concentration was 1.25%; • 5. 20 μL of the corresponding compounds with different concentration gradients were added to each well of assay wells of the 96-well plate; 20 μL of complete medium was added to positive and negative control wells and shaken well; and the final concentration of DMSO in each well was 0.25%; • 6. After 72 hours of incubation, 10 μL of CCK-8 reagent was added to each well and further incubated at 37° C. for 1-2 hours; and the OD value was read at 450 nm; • 7. Cell survival rate (%)=[(As−Ab)/(Ac−Ab)]*100% • As: Assay well (medium containing cells, CCK-8, compound), • Ac: Control well (medium containing cells, CCK-8), • Ab: Blank well (CCK-8, medium without cell and compound), • 8. The values were imported into Graphpad Prism 5 software for IC50 calculation.
# [2] = target: VEGFR-2 kinase (Homo sapiens (Human), UniProt P35968); assay: Assay of small molecular compounds for inhibiting the activity of VEGFR-2 kinase (LANCE TR-FRET); assay type: biochemical; details: read-out: VEGFR2 IC50
# Sequence of VEGFR-2 kinase (P35968 20-1356): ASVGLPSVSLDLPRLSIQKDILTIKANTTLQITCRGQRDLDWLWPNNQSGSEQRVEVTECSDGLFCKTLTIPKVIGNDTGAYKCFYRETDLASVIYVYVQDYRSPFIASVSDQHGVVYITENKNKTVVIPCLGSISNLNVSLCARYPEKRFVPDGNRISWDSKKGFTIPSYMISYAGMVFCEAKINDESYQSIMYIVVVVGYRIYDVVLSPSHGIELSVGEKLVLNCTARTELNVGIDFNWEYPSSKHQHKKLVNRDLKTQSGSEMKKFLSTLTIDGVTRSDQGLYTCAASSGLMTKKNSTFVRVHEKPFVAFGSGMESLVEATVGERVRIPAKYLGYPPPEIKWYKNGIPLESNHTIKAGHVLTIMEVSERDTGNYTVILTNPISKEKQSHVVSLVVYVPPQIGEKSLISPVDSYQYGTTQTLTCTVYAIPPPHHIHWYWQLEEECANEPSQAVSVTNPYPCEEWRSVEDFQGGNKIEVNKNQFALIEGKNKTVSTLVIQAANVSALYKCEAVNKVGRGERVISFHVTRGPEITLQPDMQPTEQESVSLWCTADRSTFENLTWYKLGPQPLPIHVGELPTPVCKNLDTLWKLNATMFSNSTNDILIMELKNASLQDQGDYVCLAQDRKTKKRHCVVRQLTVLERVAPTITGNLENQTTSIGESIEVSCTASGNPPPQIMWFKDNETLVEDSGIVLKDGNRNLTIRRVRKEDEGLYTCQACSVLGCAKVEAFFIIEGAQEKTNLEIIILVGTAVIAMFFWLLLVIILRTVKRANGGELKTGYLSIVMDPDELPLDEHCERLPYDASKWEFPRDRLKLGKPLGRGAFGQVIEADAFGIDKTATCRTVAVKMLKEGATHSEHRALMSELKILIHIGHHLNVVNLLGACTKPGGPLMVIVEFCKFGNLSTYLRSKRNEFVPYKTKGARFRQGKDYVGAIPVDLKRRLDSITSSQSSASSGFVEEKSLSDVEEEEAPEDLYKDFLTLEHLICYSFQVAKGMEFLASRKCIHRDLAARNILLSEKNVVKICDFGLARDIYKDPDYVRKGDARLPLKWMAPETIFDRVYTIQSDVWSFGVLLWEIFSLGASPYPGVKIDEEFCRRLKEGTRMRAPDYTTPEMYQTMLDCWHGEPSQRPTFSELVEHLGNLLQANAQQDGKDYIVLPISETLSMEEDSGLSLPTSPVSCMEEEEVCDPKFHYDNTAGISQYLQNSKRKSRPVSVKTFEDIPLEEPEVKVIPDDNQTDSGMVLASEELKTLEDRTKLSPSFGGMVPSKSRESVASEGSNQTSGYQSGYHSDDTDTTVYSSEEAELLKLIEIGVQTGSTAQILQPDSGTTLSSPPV
# Summary of the method: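 LANCE TR-FRET with human VEGFR-2 (2× stock 0.5 nM) preincubated 30 min with compound (final 2500 to 0.042 nM, 11-point 3-fold), then ULight-JAK-1 (Tyr1023) peptide/ATP added (4× stocks 200 nM/40 μM). Reaction 60 min room temperature, 4% DMSO; IC50 from inhibition-rate curve.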
# [3] = target: MER kinase (Homo sapiens (Human), UniProt Q12866); assay: Assay of small molecular compounds for inhibiting the activity of MER kinase (LANCE TR-FRET); assay type: biochemical
# Sequence of MER kinase (Q12866 21-999): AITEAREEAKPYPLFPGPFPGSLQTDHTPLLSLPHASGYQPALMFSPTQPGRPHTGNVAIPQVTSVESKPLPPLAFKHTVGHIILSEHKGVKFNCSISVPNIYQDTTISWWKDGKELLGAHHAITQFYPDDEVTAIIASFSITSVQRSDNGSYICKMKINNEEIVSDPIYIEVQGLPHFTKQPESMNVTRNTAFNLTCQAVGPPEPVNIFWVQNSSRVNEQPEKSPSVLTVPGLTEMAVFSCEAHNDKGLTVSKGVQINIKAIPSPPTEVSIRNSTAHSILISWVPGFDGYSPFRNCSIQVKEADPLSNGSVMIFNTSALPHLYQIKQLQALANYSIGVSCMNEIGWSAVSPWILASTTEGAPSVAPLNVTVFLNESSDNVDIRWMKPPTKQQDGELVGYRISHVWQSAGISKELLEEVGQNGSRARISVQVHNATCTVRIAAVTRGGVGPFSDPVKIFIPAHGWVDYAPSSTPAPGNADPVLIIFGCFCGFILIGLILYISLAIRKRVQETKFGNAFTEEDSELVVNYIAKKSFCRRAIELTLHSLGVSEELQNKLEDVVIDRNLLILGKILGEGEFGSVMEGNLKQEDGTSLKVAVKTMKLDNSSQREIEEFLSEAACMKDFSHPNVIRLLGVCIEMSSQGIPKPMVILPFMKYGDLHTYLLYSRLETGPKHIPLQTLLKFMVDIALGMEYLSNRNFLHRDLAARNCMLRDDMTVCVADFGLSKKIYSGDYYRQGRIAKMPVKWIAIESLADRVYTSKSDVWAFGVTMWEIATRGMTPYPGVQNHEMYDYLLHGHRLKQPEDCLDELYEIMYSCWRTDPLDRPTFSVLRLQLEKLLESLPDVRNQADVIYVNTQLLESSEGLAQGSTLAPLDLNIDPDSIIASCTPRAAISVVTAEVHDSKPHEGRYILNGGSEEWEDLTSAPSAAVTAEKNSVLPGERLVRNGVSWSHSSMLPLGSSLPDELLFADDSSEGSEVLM
# Summary of the method: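 LANCE TR-FRET readout of ULight-poly GT phosphorylation by MER kinase; compound final range 0.042-2500 nM, 3-fold steps, 5 min enzyme preincubation. Reaction 60 min at room temperature in the dark with substrate/ATP (4× at 200 nM/20 μM), 1% DMSO, then stopped and developed 60 min; IC50 by curve fit.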
# [4] = test system: MHCC97H cells; assay: Assay for inhibiting the proliferation of MHCC97H cells (CCK-8); assay type: cell-based; details: Homo sapiens
# Summary of the method: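 Cells seeded in 96-well plates overnight, then exposed 72 h to 9 three-fold dilutions of compound (0.25% DMSO final). Viability by CCK-8 (1-2 h at 37° C., OD 450 nm), survival normalized to untreated and cell-free blanks; IC50 by curve fitting.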
SMILES,IC50 [1] [nM],IC50 [2] [nM],IC50 [3] [nM],IC50 [4] [nM]
"CCn1cc(C(=O)Nc2ccc(Oc3ccnc4cc(OCCOC)c5c(c34)OCCO5)cc2)c(=O)n(-c2ccc(F)cc2)c1=O [Example 148, N-(4-((5-(2-methoxyethoxy)-2,3-dihydro-[1,4]dioxino[2,3-f]quinolin-10-yl)oxy)phenyl)-3-(4-fluorophenyl)-1-ethyl-2,4-dioxo-1,2,3,4-tetrahydropyrimidine-5-carboxamide]",200 to 1000,500 to 5000,,
"COc1cc2nccc(Oc3ccc(NC(=O)c4cn(C)c(=O)n(-c5ccc(F)cc5)c4=O)c(F)c3)c2c2c1OCCO2 [Example 153, N-(2-fluoro-4-((5-methoxy-2,3-dihydro-[1,4]dioxino[2,3-f]quinolin-10-yl)oxy)phenyl)-3-(4-fluorophenyl)-1-methyl-2,4-dioxo-1,2,3,4-tetrahydropyrimidine-5-carboxamide]",≤ 50,500 to 5000,,
"CC(C)n1cc(C(=O)Nc2ccc(Oc3ccnc4cc(OCCCN5CCOCC5)c5c(c34)OCCO5)c(Cl)c2)c(=O)n(-c2ccc(F)cc2)c1=O [Example 97, N-(3-chloro-4-((5-(3-morpholinopropoxy)-2,3-dihydro-[1,4]dioxino[2,3-f]quinolin-10-yl)oxy)phenyl)-3-(4-fluorophenyl)-1-isopropyl-2,4-dioxo-1,2,3,4-tetrahydropyrimidine-5-carboxamide]",50 to 200,500 to 5000,≤ 50,
"Cn1cc(C(=O)Nc2ccc(Oc3ccnc4cc(OCCCN5CCOCC5)c5c(c34)OCCO5)cc2Cl)c(=O)n(-c2ccc(F)cc2)c1=O [Example 98, N-(2-chloro-4-((5-(3-morpholinopropoxy)-2,3-dihydro-[1,4]dioxino[2,3-f]quinolin-10-yl)oxy)phenyl)-3-(4-fluorophenyl)-1-methyl-2,4-dioxo-1,2,3,4-tetrahydropyrimidine-5-carboxamide]",50 to 200,500 to 5000,≤ 50,
"COc1cc2nccc(Oc3ccc(NC(=O)c4cn(C)c(=O)n(-c5ccc(F)cc5)c4=O)c(Cl)c3)c2c2c1OCCO2 [Example 125, N-(2-chloro-4-((5-methoxy-2,3-dihydro-[1,4]dioxino[2,3-f]quinolin-10-yl)oxy)phenyl)-3-(4-fluorophenyl)-1-methyl-2,4-dioxo-1,2,3,4-tetrahydropyrimidine-5-carboxamide]",≤ 50,,50 to 500,
"CC(C)n1cc(C(=O)Nc2ccc(Oc3ccnc4cc(OCCCN(C)C5CCC5)c5c(c34)OCCO5)c(F)c2)c(=O)n(-c2ccc(F)cc2)c1=O [Example 96, N-(3-fluoro-4-((5-(3-((cyclobutyl)(methyl)amino)propoxy)-2,3-dihydro-[1,4]dioxino[2,3-f]quinolin-10-yl)oxy)phenyl)-3-(4-fluorophenyl)-1-isopropyl-2,4-dioxo-1,2,3,4-tetrahydropyrimidine-5-carboxamide]",200 to 1000,500 to 5000,≤ 50,
"Cn1cc(C(=O)Nc2ccc(Oc3ncnc4cc(OCCCN5CCOCC5)c5c(c34)OCCO5)c(F)c2)c(=O)n(-c2ccc(F)cc2)c1=O [Example 30, N-(3-fluoro-4-((5-(3-morpholinopropoxy)-2,3-dihydro-[1,4]dioxino[2,3-f]quinazolin-10-yl)oxy)phenyl)-3-(4-fluorophenyl)-1-methyl-2,4-dioxo-1,2,3,4-tetrahydropyrimidine-5-carboxamide]",200 to 1000,≤ 50,≤ 50,
"CCn1cc(C(=O)Nc2ccc(Oc3ccnc4cc(OCCOC)c5c(c34)OCCO5)cc2F)c(=O)n(-c2ccc(F)cc2)c1=O [Example 156, N-(2-fluoro-4-((5-(2-methoxyethoxy)-2,3-dihydro-[1,4]dioxino[2,3-f]quinolin-10-yl)oxy)phenyl)-3-(4-fluorophenyl)-1-ethyl-2,4-dioxo-1,2,3,4-tetrahydropyrimidine-5-carboxamide]",50 to 200,500 to 5000,,
"CCn1cc(C(=O)Nc2ccc(Oc3ccnc4cc(OC)c5c(c34)OCCO5)cc2)c(=O)n(-c2ccc(F)cc2)c1=O [Example 146, N-(4-((5-methoxy-2,3-dihydro-[1,4]dioxino[2,3-f]quinolin-10-yl)oxy)phenyl)-3-(4-fluorophenyl)-1-ethyl-2,4-dioxo-1,2,3,4-tetrahydropyrimidine-5-carboxamide]",200 to 1000,> 5000,,
"CC(C)n1cc(C(=O)Nc2ccc(Oc3ccnc4cc(OCCCN5CCOCC5)c5c(c34)OCCO5)c(F)c2)c(=O)n(-c2ccc(F)cc2)c1=O [Example 16, N-(3-fluoro-4-((5-(3-morpholinopropoxy)-2,3-dihydro-[1,4]dioxino[2,3-f]quinolin-10-yl)oxy)phenyl)-3-(4-fluorophenyl)-1-isopropyl-2,4-dioxo-1,2,3,4-tetrahydropyrimidine-5-carboxamide]",200 to 1000,,≤ 50,
"COc1cc2nccc(Oc3ccc(NC(=O)c4cn(C)c(=O)n(-c5ccc(F)cc5)c4=O)cc3)c2c2c1OCCO2 [Example 145, N-(4-((5-methoxy-2,3-dihydro-[1,4]dioxino[2,3-f]quinolin-10-yl)oxy)phenyl)-3-(4-fluorophenyl)-1-methyl-2,4-dioxo-1,2,3,4-tetrahydropyrimidine-5-carboxamide]",> 1000,500 to 5000,,
"COCCOc1cc2nccc(Oc3ccc(NC(=O)c4cn(C)c(=O)n(-c5ccc(F)cc5)c4=O)c(F)c3)c2c2c1OCCO2 [Example 155, N-(2-fluoro-4-((5-(2-methoxyethoxy)-2,3-dihydro-[1,4]dioxino[2,3-f]quinolin-10-yl)oxy)phenyl)-3-(4-fluorophenyl)-1-methyl-2,4-dioxo-1,2,3,4-tetrahydropyrimidine-5-carboxamide]",≤ 50,500 to 5000,,
"Cn1cc(C(=O)Nc2ccc(Oc3ccnc4cc(OCC(C)(C)O)c5c(c34)OCCO5)cc2Cl)c(=O)n(-c2ccc(F)cc2)c1=O [Example 141, N-(2-chloro-4-((5-(2-hydroxy-2-methylpropoxy)-2,3-dihydro-[1,4]dioxino[2,3-f]quinolin-10-yl)oxy)phenyl)-3-(4-fluorophenyl)-1-methyl-2,4-dioxo-1,2,3,4-tetrahydropyrimidine-5-carboxamide]",50 to 200,,50 to 500,
"Cn1cc(C(=O)Nc2ccc(Oc3ccnc4cc(OCC(C)(C)O)c5c(c34)OCCO5)cc2)c(=O)n(-c2ccc(F)cc2)c1=O [Example 149, N-(4-((5-(2-hydroxy-2-methylpropoxy)-2,3-dihydro-[1,4]dioxino[2,3-f]quinolin-10-yl)oxy)phenyl)-3-(4-fluorophenyl)-1-methyl-2,4-dioxo-1,2,3,4-tetrahydropyrimidine-5-carboxamide]",> 1000,500 to 5000,,
"COc1cc2nccc(Oc3ccc(NC(=O)c4cn(C)c(=O)n(-c5ccc(F)cc5)c4=O)cc3F)c2c2c1OCCO2 [Example 13, N-(3-fluoro-4-((5-methoxy-2,3-dihydro-[1,4]dioxino[2,3-f]quinolin-10-yl)oxy)phenyl)-3-(4-fluorophenyl)-1-methyl-2,4-dioxo-1,2,3,4-tetrahydropyrimidine-5-carboxamide]",,500 to 5000,≤ 50,50 to 200
"COCCOc1cc2nccc(Oc3ccc(NC(=O)c4cn(C)c(=O)n(-c5ccc(F)cc5)c4=O)cc3)c2c2c1OCCO2 [Example 147, N-(4-((5-(2-methoxyethoxy)-2,3-dihydro-[1,4]dioxino[2,3-f]quinolin-10-yl)oxy)phenyl)-3-(4-fluorophenyl)-1-methyl-2,4-dioxo-1,2,3,4-tetrahydropyrimidine-5-carboxamide]",50 to 200,50 to 500,,
"CCn1cc(C(=O)Nc2ccc(Oc3ccnc4cc(OCC(C)(C)O)c5c(c34)OCCO5)cc2)c(=O)n(-c2ccc(F)cc2)c1=O [Example 150, N-(4-((5-(2-hydroxy-2-methylpropoxy)-2,3-dihydro-[1,4]dioxino[2,3-f]quinolin-10-yl)oxy)phenyl)-3-(4-fluorophenyl)-1-ethyl-2,4-dioxo-1,2,3,4-tetrahydropyrimidine-5-carboxamide]",> 1000,500 to 5000,,
